From PubChem BioAssay (NCI)
Values joined by “and” are separate entries in the source; they are usually repeats but may differ in a detail not shown here. Identical values can stand only once.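 Method: 48-hour compound exposure of cells in 96-well plates, five concentrations, linear interpolation of endpoints. Abbreviation: GI50, concentration required for 50% inhibition of growth. At the TGI there is no net growth.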

Columns and labels:
Test in all cases: NCI tumour cell line growth inhibition, 48 h
HOP-62 NSCLC = test system: HOP-62 NSCLC
OVCAR-8 ovarian = test system: OVCAR-8 ovarian
HS 578T breast = test system: HS 578T breast
BT-549 breast = test system: BT-549 breast
PC-3 prostate = test system: PC-3 prostate
CCRF-CEM leukemia = test system: CCRF-CEM leukemia
MCF7 breast = test system: MCF7 breast
RXF 393 renal = test system: RXF 393 renal
HCC-2998 colon = test system: HCC-2998 colon
OVCAR-3 ovarian = test system: OVCAR-3 ovarian

Structure (SMILES) | TGI (HOP-62 NSCLC) [µM] | TGI (OVCAR-8 ovarian) [µM] | GI50 (HS 578T breast) [µM] | TGI (HS 578T breast) [µM] | TGI (BT-549 breast) [µM] | TGI (PC-3 prostate) [µM] | GI50 (CCRF-CEM leukemia) [µM] | TGI (CCRF-CEM leukemia) [µM] | GI50 (MCF7 breast) | TGI (MCF7 breast) [µM] | GI50 (RXF 393 renal) [µM] | TGI (RXF 393 renal) [µM] | GI50 (HCC-2998 colon) [µM] | TGI (HCC-2998 colon) [µM] | GI50 (OVCAR-3 ovarian) [µM] | TGI (OVCAR-3 ovarian) [µM] | GI50 (HOP-62 NSCLC) [µM] | GI50 (OVCAR-8 ovarian) [µM] | GI50 (BT-549 breast) [µM] | GI50 (PC-3 prostate) [µM]
O=c1[nH]c(=O)n(C2OC(CO)C(O)C2O)cc1F (stereo not given) | 8.59 | > 100 | 0.031 | > 100 | > 100 | > 100 | 0.0369 | > 100 | 0.00603 µM and < 0.0164 µM | > 56.4 | 4e-05 | 2.45 | 0.0346 | 54.2 | 0.0231 | 10.9 | – | – | – | –
CCSCCCC(=O)O | > 100 | > 100 | – | > 100 | > 100 | > 100 | – | > 100 | – | > 100 | – | > 100 | – | > 100 | – | > 100 | – | – | – | –
COc1ccc2c(c1)C(=O)c1c-2n(CCCCl)c(=O)c2cc(N)ccc12 | > 100 | > 100 | > 96.3 | > 100 | > 100 | > 100 | > 44.5 | > 59.4 | 34.8 µM | > 100 | > 57.3 | > 100 | > 100 | > 100 | > 100 | > 100 | > 100 | > 100 | > 100 | > 72.8
Cc1cc(OCc2nn(CN3CCN(C)CC3)c(=S)n2/N=C/c2ccc(F)cc2)ccc1Cl | 34.4 | 32.2 | 33.1 | 88.7 | 32.7 | 31.6 | 19.8 | 43.4 | 18.4 µM | 34.4 | 17.5 | 31.9 | 18.8 | 33.1 | 17.4 | 34.3 | 18.7 | 18 | 17.6 | 16.2
C1=C\CCCCN2CC[C@H]3[C@H](CCCC/C=C\CCCN4C[C@@H](CCCCC/1)C[C@@H]3C4)C2 | 29.8 | 25.3 | 5.22 | 15.4 | 27.3 | 36.6 | 3.64 | > 22.6 | 3.58 µM | 15.1 | 2.72 | 8.17 | 2.58 | 7.6 | 10.8 | 23.3 | 15.7 | 10.8 | 13.4 | 14
C/C(=N\NC(=S)N1CCN(c2ccccn2)CC1)c1cccc2cccnc12 | > 100 | > 100 | – | > 100 | > 100 | > 100 | – | > 42.8 | – | > 100 | – | > 100 | – | > 58.9 | – | > 29 | – | – | – | –
CC(C)(C)OC(=O)N1Cc2cc3ccccc3nc2C1CO (stereo not given) | > 100 | > 100 | > 100 | > 100 | > 100 | > 100 | > 100 | > 100 | > 100 µM | > 100 | > 100 | > 100 | > 100 | > 100 | > 100 | > 100 | > 100 | > 100 | > 100 | > 100
COc1cccc(-c2nn(-c3ccccc3)cc2-c2ccnc(NCCCNS(=O)(=O)c3ccc(C(F)(F)F)cc3)c2)c1 | > 100 | > 100 | 5.41 | > 100 | > 100 | > 100 | 5.07 | > 100 | 3.87 µM | > 100 | 3.01 | > 100 | 5.22 | > 100 | 5.75 | > 100 | 13.8 | 7.13 | 4.41 | 3.36
CCCCNCCCCCNc1cc(OC)cc2cccnc12 | 30.1 | 37.6 | 21.7 | 47.9 | 28.8 | 34.7 | 28.1 | 74.2 | > 100 µM | > 100 | 12.3 | 27.9 | 3.1 | 16.4 | 19 | 45.5 | 15.1 | 17.8 | 14.5 | 15.2
Cc1nn(-c2ccccc2)c2nc(C)n(-c3ccc(Br)cc3)c(=O)c12 | > 100 | > 100 | 0.371 | > 100 | 67.3 | > 100 | 0.411 | > 100 | 0.356 µM | > 100 | 0.286 | 0.972 | 1.61 | > 100 | 0.405 | > 36.7 | 0.678 | 0.965 | 0.688 | 0.475
CCN(CC)CCCC(C)Nc1ccnc(/C=C/c2ccc(Cl)cc2)c1 (stereo not given) | 4.11 | 7.57 | – | 5.81 | 8.39 | 10.7 | – | > 19.7 | – | 4.84 | 1.44 | 2.92 | – | 4.03 | – | 4.98 | – | – | – | –
O=C(Nc1cc2cc([N+](=O)[O-])ccc2oc1=O)c1cccs1 | > 100 | > 100 | – | > 100 | > 100 | > 100 | – | 78.3 | – | 85.2 | – | 34.4 | – | > 100 | – | > 100 | – | – | – | –
COC(=O)[C@H](CCCCNC(=O)OCc1ccccc1)NC(=O)[C@@H](NC(=O)Nc1cc(C(F)(F)F)cc(C(F)(F)F)c1)C(C)C | > 10 | > 10 | > 10 | > 10 | > 10 | > 10 | > 10 | > 10 | > 10 µM | > 10 | > 10 | > 10 | > 10 | > 10 | > 10 | > 10 | > 10 | > 10 | > 10 | > 10
NC(=O)c1ncn2c(=O)n(CCCl)nnc12 | 139 | 426 | – | 695 | 306 | 534 | > 62.9 | 440 | 68.3 µM | 379 | – | 337 | – | 366 | – | 475 | 53.4 | – | – | –
